# Reference: patent US4632828A, “Pharmaceutical composition” (priority 1984, dated 1986)
# Experiments:
# [1] = Differential Scanning Calorimetry of MAP/swellable polymer systems; assay type: physicochemical; settings: DSC; for % Residual of Original Heat of Fusion: relative to pure crystalline MAP
# Description: Alternatively, the grinding of the MAP-swellable polymer mixture can be stopped at any time the original crystalline form of MAP has been transformed into another, more energetic form.
# [2] = Solubility (saturation concentration) of MAP/swellable polymer systems; assay type: physicochemical; settings: pH 5.5 phosphate buffer, 37° C.
# Description: The flasks were placed in a shaking thermostated apparatus and aliquots of sample solutions were taken by filtering through a Millipore membrane. The concentration of MAP in the filtered aliquot was determined both by spectrophotometry (SP8-100, Pye Unicam), after dilution with methanol, and by HPLC (column: Spherisorb S30DS2, Phase Sep.; mobile phase: acetonitrile/water 70/30 v/v; flow rate: 1 ml/min; U.V. detection, λ=242 nm), after dilution with acetonitrile.
SMILES,Heat of Fusion [1] [J/g],Melting Point [1],% Residual of Original Heat of Fusion [1] [%],Melting Point ([1]; listed as pure MAP) [°C],Solubility ([2]; 5 min) [µg/mL],Solubility ([2]; 15 min) [µg/mL],Solubility ([2]; 1 hr) [µg/mL],Solubility ([2]; 6 hrs) [µg/mL]
"CC(=O)O[C@]1(C(C)=O)CC[C@H]2[C@@H]3C[C@H](C)C4=CC(=O)CC[C@]4(C)[C@H]3CC[C@@]21C [Micronized pure MAP, 6α-methyl, 17α-hydroxy-progesterone acetate]",82.798,205.3 °C,94.1,–,–,–,–,–
"CC(=O)O[C@]1(C(C)=O)CC[C@H]2[C@@H]3C[C@H](C)C4=CC(=O)CC[C@]4(C)[C@H]3CC[C@@]21C [Pure crystalline MAP, 6α-methyl, 17α-hydroxy-progesterone acetate]",88.003,205-206 °C,100,205.6,< 0.04,0.32,0.68,1.00
